Test results published in patent publication US20240150715A1 (Sciperio, Inc, priority 2022, published 2024).

How the values were obtained:
Assay type in all cases: cell-based
[1] = system: differentiating hematopoietic stem cells (HSCs); assay: High-density differentiation of HSCs into RBCs: culture density / proliferation; conditions: ferric citrate compared with transferrin, FIG. 5A
Source text: (B) Secretion of cellular waste compounds ammonia and lactate is equivalent between ferric citrate and transferrin, indicating similar metabolic rates. (C) Rates of lytic cell death are similar between cultures treated with ferric citrate and transferrin, as is indicated by the release of lactate dehydrogenase (LDH). (D) Amino acid consumption is similar between the two conditions, as is represented by the consumption of alanine and other amino acids.
The medium formulation has specifically been designed for the efficient, high density, in vitro manufacture of RBCs from HSCs in bioreactors. It is formulated to optimally supply certain growth factors at elevated concentrations for rapid HSC expansion and mediated erythropoiesis using a bioreactor (FIG. 1). The formulation has been determined experimentally using the average depletion rates of various factors by differentiating HSCs in high-density culture (FIG. 2), and can be employed in the production of manufactured RBCs both in static culture (e.g. culture flasks) and in continually agitated suspension culture (e.g. bioreactors).
The present inventors have experimentally determined that a concentration range between 1 μg/mL and 500 μg/mL is effective in driving directed HSC differentiation through the stages of erythropoiesis in a manner that is equivalent to that of holo-transferrin (FIG. 4).

[2] = system: RBCs differentiated from HSCs; assay: Enucleation, maturation and morphology of manufactured RBCs (DRAQ5-, CD235a+; leukofiltration; Leishman stain); conditions: for concentration of enucleated cells after leukofiltration: FIG. 6B
Source text: FIG. 6 illustrates ferric citrate-treated RBCs enucleate at rates similar to transferrin-treated RBCs.

[3] = system: differentiating HSCs in high density culture; assay: Analysis of culture medium: metabolic waste, LDH release, amino acid consumption; conditions: ferric citrate compared with transferrin

Row | Molecule | effect on HSC density and cumulative population doubling [1] | cell morphology ([2]; Leishman stain, ferric citrate compared with transferrin, FIG. 6C) | concentration of enucleated cells after leukofiltration [2] | difference in overall enucleation ([2]; ferric citrate versus transferrin, after differentiation in optimized medium, FIG. 6A) | secretion of cellular waste compounds ammonia and lactate ([3]; FIG. 5B) | amino acid consumption (alanine and other amino acids) ([3]; FIG. 5D)
1 | O=C([O-])CC(O)(CC(=O)[O-])C(=O)[O-].[Fe+3] [ferric citrate, iron (III) citrate] | comparable | morphologically similar | 74.8% | ~4% | equivalent | similar
2 | transferrin: iron-loaded protein holo-transferrin, traditional iron source in HSC culture media | – | – | 79% | – | – | –
